Assay results reported in patent US20160137639A1, “TRIAZOLE-ISOXAZOLE COMPOUND AND MEDICAL USE THEREOF” (JAPAN TOBACCO INC., priority 2012, published 2016).
Like-named read-outs stand apart in the source and are kept apart here.

Experiments:
mouse RORγ = molecular target: T1, mouse RORγ (Mus musculus, UniProt P51450); assay: Luciferase reporter gene assay of inhibitory effect against RORγ transcriptional activity (GAL4-mRORγ plasmid in CHO cells); type: cell-based
T1 construct: mouse, NM_011281.2 and from Ile251 to Lys516; expressed in transfected cells; host or cells: CHO cells (transient co-transfection with pG5-Luc reporter)
T1 sequence (P51450 251-516): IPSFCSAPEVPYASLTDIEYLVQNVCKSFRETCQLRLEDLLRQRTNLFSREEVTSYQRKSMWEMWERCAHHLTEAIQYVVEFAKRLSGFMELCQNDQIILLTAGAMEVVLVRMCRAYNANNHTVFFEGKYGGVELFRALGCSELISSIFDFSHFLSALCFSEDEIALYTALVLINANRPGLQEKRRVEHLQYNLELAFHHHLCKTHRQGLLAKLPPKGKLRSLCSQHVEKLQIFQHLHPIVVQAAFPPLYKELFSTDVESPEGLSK
Method in brief: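 CHO cells transiently co-transfected with GAL4-mouse RORγ LBD (Ile251–Lys516) and GAL4-dependent luciferase reporter; eight compound concentrations, 0.1% DMSO, 2 days at 37 °C. Luminescence as %-of-vehicle control; EC50 by curve fit, cytotoxic concentrations excluded.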

human RORγ = molecular target: T2, human RORγ (Homo sapiens, UniProt P51449); assay: Luciferase reporter gene assay of inhibitory effect against RORγ transcriptional activity (GAL4-hRORγ plasmid in CHO cells); type: cell-based
T2 construct: human, NM_005060.3 and from Ser253 to Lys518; expressed in transfected cells; host or cells: CHO cells (transient co-transfection with pG5-Luc reporter)
T2 sequence (P51449 253-518): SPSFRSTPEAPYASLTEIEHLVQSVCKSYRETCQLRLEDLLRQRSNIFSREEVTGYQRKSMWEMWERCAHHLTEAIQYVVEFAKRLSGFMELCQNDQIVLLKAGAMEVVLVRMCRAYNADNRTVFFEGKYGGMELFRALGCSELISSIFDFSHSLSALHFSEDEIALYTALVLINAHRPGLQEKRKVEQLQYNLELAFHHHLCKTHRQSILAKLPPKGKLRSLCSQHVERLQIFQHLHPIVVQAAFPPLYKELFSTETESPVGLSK

Compound	EC50 (mouse RORγ; read-out: LUC EC50 mRORg)	EC50 (human RORγ; read-out: LUC EC50 hRORg)	EC50 (mouse RORγ; read-out: LUC EC50 (μM) mRORg)	EC50 (human RORγ; read-out: LUC EC50 (μM) hRORg)
Cc1ccc(NC(=O)C[C@H](CCCO)c2nnc([C@H]3C[C@@H](CC(C)C)C3)n2C2CC2)c(C)c1 [Example F-511]	< 3 µM	< 3 µM		
CC(=O)N1C[C@H](C(=O)Nc2ccc(C)cc2C)[C@@H](c2nnc(-c3ccc(C(C)C)cc3)n2C2CC2)C1 [Example F-371]			< 3 µM	< 3 µM
CCC(C)(C)C[C@H]1C[C@@H](c2onc([C@@H](CCC(=O)O)CC(=O)Nc3ccc(C)nc3C)c2C2CC2)C1 [Example F-692]	< 3 µM	< 3 µM		
Cc1ccc(NC(=O)CCc2noc(C(F)(F)c3cc(C(C)(C)C)on3)c2C2CC2)c(Cl)c1 [Example F-745]	< 3 µM	< 3 µM		
Cc1cccc(CNC(=O)CCc2nnc(CCC(C)C)n2C2CC2)c1C [Example F-118]			> 3 µM	> 3 µM
COc1cc(C)ccc1CNC(=O)C[C@H](CCO)c1nnc([C@H]2C[C@@H](CC(C)C)C2)n1C1CC1 [Example F-535]	< 3 µM	< 3 µM		
Cc1ccc(NC(=O)CCc2nnc(CCC3CCCCC3)n2C2CC2(F)F)c(C)c1 (racemic) [Example F-211]			< 3 µM	< 3 µM
CC(C)(C)C(F)(F)c1cc(-c2onc([C@@H](CCC(=O)O)CC(=O)Nc3ccc(Cl)cc3F)c2C2CC2)no1 [Example E-49, Sodium (S)-5-(4-chloro-2-fluoro-phenylcarbamoyl)-4-[4′-cyclopropyl-5-(1,1-difluoro-2,2-dimethylpropyl)-[3,5′]biisoxazolyl-3′-yl]-pentanoate]			< 3 µM	< 3 µM
Cc1ccc(NC(=O)CC(CCOC(=O)N(C)C)c2nnc([C@H]3C[C@@H](CC(C)C)C3)n2C2CC2)c(C)c1 (mixture of isomers) [Example F-484]			< 3 µM	< 3 µM
C=CC[C@H](CC(=O)Nc1ccc(C)cc1C)c1nnc(CCCC(C)(C)C)n1C1CC1 [Example F-381]			< 3 µM	> 3 µM
CC(C)CCc1nnc(CCC(=O)Nc2cccc(Cl)c2F)n1C1CC1 [Example F-100]			> 3 µM	> 3 µM
COc1cc(C)ccc1CNC(=O)CC(CCO)c1nnc(CCC2CCCCC2)n1C1CC1 (racemic) [Example F-249]			< 3 µM	< 3 µM
CC(=O)N1C[C@@H](C(=O)Nc2ccc(C)cc2C)[C@H](c2nnc(-c3cc(CC(C)C)on3)n2C2CC2)C1 [Example F-409]			> 3 µM	> 3 µM
Cc1ccc(NC(=O)[C@H]2CN(C(=O)C(F)F)C[C@@H]2c2nnc([C@H]3C[C@@H](CC(C)(C)C)C3)n2C2CC2)c(C)c1 [Example F-551]	< 3 µM	< 3 µM		
Cc1ccc(NC(=O)C[C@H](CCC(=O)O)c2onc([C@H]3C[C@@H](CC(C)(C)C)C3)c2C2CC2)c(Cl)c1 [Example F-715, (S)-5-(2-Chloro-4-methyl-phenylcarbamoyl)-4-{4-cyclopropyl-3-[3-(2,2-dimethyl-propyl)-cyclobutyl]-isoxazol-5-yl}-pentanoic acid]	< 3 µM	< 3 µM		
CC(=O)N1C[C@H](C(=O)Nc2ccc(C)cc2C)[C@@H](c2nnc(C3CC4(CCCCC4)C3)n2C2CC2)C1 [Example F-473]			< 3 µM	< 3 µM
COc1cccc(NC(=O)CCc2nnc(CCC(C)C)n2C2CC2)c1C [Example F-85]			> 3 µM	> 3 µM
CC(=O)N1C[C@H](C(=O)Nc2cccc(Cl)c2C)[C@@H](c2nnc(CCC3CCCCC3)n2C2CC2)C1 (racemic) [Example F-155]			< 3 µM	< 3 µM
Cc1ccc(NC(=O)C[C@H](CCC(=O)O)c2noc(-c3cc(C4CC(C)(C)C4)on3)c2C2CC2)c(Cl)c1 [Example E-30]			< 3 µM	< 3 µM
Cc1c(NC(=O)C[C@H](CCO)c2nnc(-c3cc(CC(C)C)on3)n2C2CC2)ccc(F)c1F [Example F-662]	< 3 µM	< 3 µM		
CC(=O)N1C[C@H](C(=O)Nc2cccc(Cl)c2C)[C@@H](c2nnc(CCC(C)C)n2C2CC2)C1 (racemic) [Example F-145]			< 3 µM	< 3 µM
Cc1ccc(NC(=O)CC(CC(=O)O)c2nnc([C@H]3C[C@@H](CC(C)C)C3)n2C2CC2)c(C)c1 (mixture of isomers) [Example F-499]	< 3 µM	> 3 µM		
Cc1ccc(NC(=O)CCc2nnc(C3CC(COC(C)C)C3)n2C2CC2)c(C)c1 (single isomer, unassigned) [Example F-477]			< 3 µM	< 3 µM

Compound	EC50 (mouse RORγ; read-out: LUC EC50 mRORg)	EC50 (human RORγ; read-out: LUC EC50 hRORg)	EC50 (mouse RORγ; read-out: LUC EC50 (μM) mRORg)	EC50 (human RORγ; read-out: LUC EC50 (μM) hRORg)
Cc1ccc(NC(=O)C[C@H](OCc2ccccc2)c2nnc([C@H]3C[C@@H](CC(C)C)C3)n2C2CC2)c(C)c1 [Example F-581]	< 3 µM	< 3 µM		
CCOC(=O)/C=C/c1c(CCC(=O)Nc2ccc(C)cc2C)noc1[C@H]1C[C@@H](CC(C)C)C1 [Example F-645]	> 3 µM	> 3 µM		
Cc1c(Cl)cccc1CNC(=O)CCc1nnc(CCC(C)C)n1C1CC1 [Example F-123]			> 3 µM	> 3 µM
O=C(CCc1nnc(C2Cc3ccccc3C2)n1C1CC1)Nc1cccc2ccccc12 [Example F-4]			< 3 µM	< 3 µM
Cc1ccc(NC(=O)CC(CCCN)c2nnc(CCCC(C)C)n2C2CC2)c(C)c1 (racemic) [Example F-282]			> 3 µM	> 3 µM
Cc1cc(Cl)ccc1NC(=O)C[C@H](CCO)c1nnc(-c2cc(CC(C)(C)C)on2)n1C1CC1 [Example F-608]	< 3 µM	< 3 µM		
Cc1ccc(NC(=O)CC(CC(=O)N(C)C)c2nnc([C@H]3C[C@@H](CC(C)C)C3)n2C2CC2)c(C)c1 (mixture of isomers) [Example F-500]	< 3 µM	< 3 µM		
Cc1ccc(NC(=O)C[C@H](CCC(=O)O)c2cc([C@H]3C[C@@H](CC(C)(C)C)C3)on2)c(Cl)c1 [Example F-676]	< 3 µM	< 3 µM		
CC(C)(C)Cc1cc(-c2onc([C@@H](CCC(=O)O)CC(=O)Nc3ccc(Cl)cc3Cl)c2C2CC2)no1 [Example E-58, Sodium (S)-4-[4′-cyclopropyl-5-(2,2-dimethyl-propyl)-[3,5′]biisoxazolyl-3′-yl]-5-(2,4-dichloro-phenylcarbamoyl)-pentanoate]			< 3 µM	< 3 µM
CC(=O)c1ccc(NC(=O)C[C@H](CCC(=O)O)c2noc([C@H]3C[C@@H](CC(C)(C)CO)C3)c2C2CC2)c(Cl)c1 [Example F-731]	> 3 µM	> 3 µM		
Cc1c(Cl)cccc1NC(=O)CCc1nnc(CCNC(C)C)n1C1CC1 [Example F-171]			> 3 µM	> 3 µM
CNC(=O)N1C[C@H](C(=O)Nc2ccc(C)cc2C)[C@@H](c2nnc(CCCC(C)(C)C)n2C2CC2)C1 (racemic) [Example F-446]			< 3 µM	< 3 µM
COC1C[C@@H](C(=O)Nc2ccc(C)cc2C)[C@H](c2nnc([C@H]3C[C@@H](CC(C)C)C3)n2C2CC2)C1 (single isomer, unassigned) [Example F-555]	> 3 µM	> 3 µM		
Cc1c(Cl)cccc1NC(=O)CCc1nnc(COCc2ccccc2)n1C1CC1 [Example F-166]			< 3 µM	> 3 µM
Cc1ccc(NC(=O)C[C@H](CC(C)C)c2nnc(-c3cc(CC(C)(C)C)on3)n2C2CC2)c(C)c1 [Example F-625]	< 3 µM	< 3 µM		
CC(=O)N1C[C@H](C(=O)Nc2cc(C)ccc2C)[C@@H](c2nnc(CCCC(C)(C)C)n2C2CC2)C1 (racemic) [Example F-331]			< 3 µM	< 3 µM
Cc1c(F)ccc(NC(=O)C[C@H](CCO)c2nnc([C@H]3C[C@@H](CC(C)C)C3)n2C2CC2)c1C [Example F-623]	< 3 µM	< 3 µM		
CC(=O)N1CC([C@@H](CC(=O)Nc2ccc(C)cc2C)c2nnc([C@H]3C[C@@H](CC(C)C)C3)n2C2CC2)C1 [Example F-466]			< 3 µM	< 3 µM
CCn1c(CCC(=O)Nc2cccc3ccccc23)nnc1CCC1CCCCC1 [Example F-13]			< 3 µM	< 3 µM
Cc1c(Cl)cccc1NC(=O)CCc1nnc(CCC2CCC(F)(F)CC2)n1C1CC1 [Example F-254]			< 3 µM	< 3 µM
CC(=O)N1C[C@H](C(=O)Nc2ccc(C)cc2C)[C@@H](c2nnc([C@H]3C[C@@H](OC(C)C)C3)n2C2CC2)C1 (racemic) [Example F-330]			> 3 µM	> 3 µM
Cc1ccc(NC(=O)CCc2nnc(C3(O)CC(CC(C)C)C3)n2C2CC2)c(C)c1 (single isomer, unassigned) [Example F-430]			< 3 µM	< 3 µM
Cc1ccc(NC(=O)CC(Cc2nccs2)c2nnc([C@H]3C[C@@H](CC(C)C)C3)n2C2CC2)c(C)c1 (mixture of isomers) [Example F-439]			< 3 µM	< 3 µM
